System: 233499-124-R-J3-PDC complex spheroid viability
Experiment: Anticancer human tumor 233499-124-R-J3-PDC patient-derived colon adenocarcinoma cell line growth inhibition [CLK]
Conditions: for IC50: curve of first compound; for viability, T/C: stronger effect = lower value; active means viability on the fitted dose curve at most 10% of control; inactive means the rest
In short: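 Multi-cell-type spheroids combined patient-derived tumor cells with HUVEC endothelial cells and human mesenchymal stem cells. Paired agents were dosed in half-log steps down from about clinical Cmax, or from 10 microM where Cmax was unknown.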

[1] = second compound 0.0316 µM, first compound 0.0316 µM
[2] = second compound 0.0316 µM, first compound 0.1 µM
[3] = second compound 0.0316 µM, first compound 0.316 µM
[4] = second compound 0.0316 µM, first compound 1 µM
[5] = second compound 0.0316 µM, first compound 3.16 µM
[6] = second compound 0.0316 µM, first compound 10 µM
[7] = second compound 0.1 µM, first compound 0.0316 µM
[8] = second compound 0.1 µM, first compound 0.1 µM
[9] = second compound 0.1 µM, first compound 0.316 µM
[10] = second compound 0.1 µM, first compound 1 µM
[11] = second compound 0.1 µM, first compound 3.16 µM
[12] = second compound 0.1 µM, first compound 10 µM
[13] = second compound 0.316 µM, first compound 0.0316 µM
[14] = second compound 0.316 µM, first compound 0.1 µM
[15] = second compound 0.316 µM, first compound 0.316 µM
[16] = second compound 0.316 µM, first compound 1 µM
[17] = second compound 0.316 µM, first compound 3.16 µM
[18] = second compound 0.316 µM, first compound 10 µM
[19] = second compound 1 µM, first compound 0.0316 µM
[20] = second compound 1 µM, first compound 0.1 µM
[21] = second compound 1 µM, first compound 0.316 µM
[22] = second compound 1 µM, first compound 1 µM
[23] = second compound 1 µM, first compound 3.16 µM
[24] = second compound 1 µM, first compound 10 µM
[25] = second compound 3.16 µM, first compound 0.0316 µM
[26] = second compound 3.16 µM, first compound 0.1 µM
[27] = second compound 3.16 µM, first compound 0.316 µM
[28] = second compound 3.16 µM, first compound 1 µM
[29] = second compound 3.16 µM, first compound 3.16 µM
[30] = second compound 3.16 µM, first compound 10 µM
[31] = second compound 10 µM, first compound 0.0316 µM
[32] = second compound 10 µM, first compound 0.1 µM
[33] = second compound 10 µM, first compound 0.316 µM
[34] = second compound 10 µM, first compound 1 µM
[35] = second compound 10 µM, first compound 3.16 µM
[36] = second compound 10 µM, first compound 10 µM
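Further: spheroids exposed to the drug combinations for seven days.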
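Wherever viability, T/C is given: percent viability relative to DMSO vehicle control wells taken as 100%.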

CC1(C)CCC(CN2CCN(c3ccc(C(=O)NS(=O)(=O)c4ccc(NCC5CCOCC5)c([N+](=O)[O-])c4)c(Oc4cnc5[nH]ccc5c4)c3)CC2)=C(c2ccc(Cl)cc2)C1 + CN1CCN(c2cc(C(=O)Nc3cc4cc(-c5cnn(C)c5)ccc4cn3)ccn2)CC1
6.39 µM: IC50 (second compound 0.0316 µM)
active: viability, T/C [19] 0.68% | viability, T/C [20] 5.6% | viability, T/C [21] 5.7% | viability, T/C [22] 0.77% | viability, T/C [23] 0.88% | viability, T/C [24] 1.46% | viability, T/C [25] 0.9% | viability, T/C [26] 0.86% | viability, T/C [27] 1.07% | viability, T/C [28] 0.81% | viability, T/C [29] 1.05% | viability, T/C [30] 0.73% | viability, T/C [31] 0.67% | viability, T/C [32] 0.49% | viability, T/C [33] 0.43% | viability, T/C [34] 0.49% | viability, T/C [35] 0.56% | viability, T/C [36] 0.29%
inactive: viability, T/C [1] 93.1% | viability, T/C [2] 104% | viability, T/C [3] 102% | viability, T/C [4] 112% | viability, T/C [5] 113% | viability, T/C [6] 15.2% | viability, T/C [7] 96.4% | viability, T/C [8] 109% | viability, T/C [9] 100% | viability, T/C [10] 109% | viability, T/C [11] 112% | viability, T/C [12] 14.5% | viability, T/C [13] 86.1% | viability, T/C [14] 97% | viability, T/C [15] 89% | viability, T/C [16] 98.6% | viability, T/C [17] 93.8% | viability, T/C [18] 9.92%
< 0.0316 µM: IC50 (second compound 1 µM) | IC50 (second compound 3.16 µM) | IC50 (second compound 10 µM)
5.74 µM: IC50 (second compound 0.316 µM)
6.37 µM: IC50 (second compound 0.1 µM)

CC1(C)CCC(CN2CCN(c3ccc(C(=O)NS(=O)(=O)c4ccc(NCC5CCOCC5)c([N+](=O)[O-])c4)c(Oc4cnc5[nH]ccc5c4)c3)CC2)=C(c2ccc(Cl)cc2)C1 + CNC(=O)c1ccc(Nc2nc(OC3CCCC3)c3c(-c4ccc5nc(C)oc5c4)c[nH]c3n2)c(OC)c1
6.79 µM: IC50 (second compound 0.0316 µM)
2.87 µM: IC50 (second compound 3.16 µM)
4.47 µM: IC50 (second compound 10 µM)
inactive: viability, T/C [1] 79.5% | viability, T/C [2] 96.9% | viability, T/C [3] 94.3% | viability, T/C [4] 106% | viability, T/C [5] 96.5% | viability, T/C [6] 27.2% | viability, T/C [7] 68.9% | viability, T/C [8] 70.2% | viability, T/C [9] 85% | viability, T/C [10] 76.2% | viability, T/C [11] 51.6% | viability, T/C [12] 20.8% | viability, T/C [13] 76.4% | viability, T/C [14] 79.6% | viability, T/C [15] 81.3% | viability, T/C [16] 76.8% | viability, T/C [17] 49.9% | viability, T/C [18] 25.1% | viability, T/C [19] 74.3% | viability, T/C [20] 90% | viability, T/C [21] 72.1% | viability, T/C [22] 68.4% | viability, T/C [23] 60.1% | viability, T/C [24] 33.5% | viability, T/C [25] 77.1% | viability, T/C [26] 66.5% | viability, T/C [27] 76% | viability, T/C [28] 76.6% | viability, T/C [29] 47.8% | viability, T/C [30] 24.2% | viability, T/C [31] 70.1% | viability, T/C [32] 71.9% | viability, T/C [33] 76.8% | viability, T/C [34] 74.9% | viability, T/C [35] 59% | viability, T/C [36] 29.2%
3.14 µM: IC50 (second compound 0.316 µM)
4.67 µM: IC50 (second compound 1 µM)
3.35 µM: IC50 (second compound 0.1 µM)

Nc1ccccc1NC(=O)c1ccc(CNC(=O)OCc2cccnc2)cc1 + CN1CCN(c2cc(C(=O)Nc3cc4cc(-c5cnn(C)c5)ccc4cn3)ccn2)CC1
< 0.0316 µM: IC50 (second compound 0.316 µM) | IC50 (second compound 1 µM) | IC50 (second compound 3.16 µM) | IC50 (second compound 10 µM)
active: viability, T/C [6] 0.6% | viability, T/C [11] 2.92% | viability, T/C [12] 0.44% | viability, T/C [16] 0.63% | viability, T/C [17] 0.47% | viability, T/C [18] 0.63% | viability, T/C [19] 0.46% | viability, T/C [20] 0.44% | viability, T/C [21] 0.62% | viability, T/C [22] 0.56% | viability, T/C [23] 0.57% | viability, T/C [24] 1.23% | viability, T/C [25] 0.65% | viability, T/C [26] 0.68% | viability, T/C [27] 0.7% | viability, T/C [28] 0.66% | viability, T/C [29] 0.69% | viability, T/C [30] 0.59% | viability, T/C [31] 0.18% | viability, T/C [32] 0.24% | viability, T/C [33] 0.28% | viability, T/C [34] 0.28% | viability, T/C [35] 0.26% | viability, T/C [36] 0.35%
1.69 µM: IC50 (second compound 0.0316 µM)
inactive: viability, T/C [1] 96.3% | viability, T/C [2] 89.9% | viability, T/C [3] 93.6% | viability, T/C [4] 80.5% | viability, T/C [5] 13.5% | viability, T/C [7] 89.3% | viability, T/C [8] 100% | viability, T/C [9] 80.2% | viability, T/C [10] 56.6% | viability, T/C [13] 17.7% | viability, T/C [14] 47.3% | viability, T/C [15] 2.45%
1.11 µM: IC50 (second compound 0.1 µM)
